Consider eleven compounds from ChEMBL document CHEMBL1255478, “Characterization of CSP-1, a novel extended-spectrum beta-lactamase produced by a clinical isolate of Capnocytophaga sputigena” (2010).

Molecules are shown by their SMILES. ≈ marks a conversion by molar mass, not a printed value.

Holding throughout (format): functional
Test [1] deals with Capnocytophaga sputigena. As to the kind of experiment: Antimicrobial activity against Capnocytophaga sputigena isolate NOR after 2 days by agar dilution method. Conditions: 48 h. A general note: Agar dilution tests growth on a series of plates holding different concentrations.
Test [2] concerns Escherichia coli. As to the kind of experiment: Antimicrobial activity against Escherichia coli TOP10(pNOR-1) expressing CSP-1 gene after 2 days by agar dilution method. Conditions: 48 h.
In test [3] the test system is Capnocytophaga sputigena. As to the kind of experiment: Antimicrobial activity against Capnocytophaga sputigena CRBIP 17.39 after 2 days by agar dilution method. The conditions noted are these: CRBIP 17.39, 48 h.
In test [4] the test system is Capnocytophaga sputigena. The test can be described thus: Antimicrobial activity against Capnocytophaga sputigena CIP 104301T after 2 days by agar dilution method. The conditions noted are these: 48 h.
The test system of test [5] is Escherichia coli. The test can be described thus: Antimicrobial activity against Escherichia coli TOP10 after 2 days by agar dilution method. The conditions noted are these: TOP10, 48 h.

Take `CO[C@@]1(NC(=O)Cc2cccs2)C(=O)N2C(C(=O)O)=C(COC(N)=O)CS[C@@H]21` [CEFOXITIN]: the MIC with Capnocytophaga sputigena [1] was 0.5 µg/mL (≈ 1.17 µM); with Escherichia coli [2], 2 µg/mL (≈ 4.68 µM); in the test on Capnocytophaga sputigena [3] it was 0.5 µg/mL (≈ 1.17 µM); with Capnocytophaga sputigena [4], 0.5 µg/mL (≈ 1.17 µM); with Escherichia coli [5], 2 µg/mL (≈ 4.68 µM).

On to `CC1(C)S[C@@H]2[C@H](NC(=O)[C@H](C(=O)O)c3ccsc3)C(=O)N2[C@H]1C(=O)O` [TICARCILLIN], for which the MIC with Capnocytophaga sputigena [1] was 4 µg/mL (≈ 10.4 µM); in the test on Escherichia coli [2] it was above 512 µg/mL; with Capnocytophaga sputigena [3] it was 0.25 µg/mL (≈ 0.65 µM); in the test with Capnocytophaga sputigena [4], 0.25 µg/mL (≈ 0.65 µM); against Escherichia coli [5], 1 µg/mL (≈ 2.6 µM).

As for `CCN1CCN(C(=O)N[C@@H](C(=O)N[C@@H]2C(=O)N3[C@@H]2SC(C)(C)[C@@H]3C(=O)O)c2ccccc2)C(=O)C1=O` [PIPERACILLIN], the MIC with Capnocytophaga sputigena [1] amounted to 0.5 µg/mL (≈ 0.966 µM); in the test with Escherichia coli [2], 16 µg/mL (≈ 30.9 µM); with Capnocytophaga sputigena [3] it was 0.25 µg/mL (≈ 0.483 µM); against Capnocytophaga sputigena [4] it was 0.25 µg/mL (≈ 0.483 µM); against Escherichia coli [5], 1 µg/mL (≈ 1.93 µM).

On to `C[C@@H](O)[C@H]1C(=O)N2C(C(=O)O)=C(SCCNC=N)C[C@H]12` [IMIPENEM ANHYDROUS], for which the MIC in the test on Capnocytophaga sputigena [1], in the test with Escherichia coli [2], with Capnocytophaga sputigena [3] and in the test on Capnocytophaga sputigena [4] was 0.06 µg/mL (≈ 0.2 µM) each time.

For `CC1(C)S[C@@H]2[C@H](NC(=O)[C@H](N)c3ccc(O)cc3)C(=O)N2[C@H]1C(=O)O` [AMOXICILLIN], the MIC against Capnocytophaga sputigena [1] was 256 µg/mL (≈ 701 µM); against Escherichia coli [2], above 512 µg/mL; in the test on Capnocytophaga sputigena [3], 0.25 µg/mL (≈ 0.684 µM); in the test on Capnocytophaga sputigena [4], 0.25 µg/mL (≈ 0.684 µM); in the test on Escherichia coli [5] it was 2 µg/mL (≈ 5.47 µM).

With `CO/N=C(\C(=O)N[C@@H]1C(=O)N2C(C(=O)O)=C(COC(C)=O)CS[C@H]12)c1csc(N)n1` [CEFOTAXIME], the MIC in the test on Capnocytophaga sputigena [1] was 0.25 µg/mL (≈ 0.549 µM); in the test with Escherichia coli [2], 8 µg/mL (≈ 17.6 µM); in the test on Capnocytophaga sputigena [3], below 0.06 µg/mL; in the test on Capnocytophaga sputigena [4], below 0.06 µg/mL; against Escherichia coli [5] it was below 0.06 µg/mL.

`C[C@H]1[C@H](NC(=O)/C(=N\OC(C)(C)C(=O)O)c2csc(N)n2)C(=O)N1S(=O)(=O)O` [AZTREONAM]: the minimum inhibitory concentration (MIC) in the test with Capnocytophaga sputigena [1] is 0.125 µg/mL (≈ 0.287 µM); with Escherichia coli [2], 16 µg/mL (≈ 36.7 µM); with Capnocytophaga sputigena [3], 0.125 µg/mL (≈ 0.287 µM); in the test on Capnocytophaga sputigena [4], 0.125 µg/mL (≈ 0.287 µM).

Turning to `CC(C)(O/N=C(\C(=O)N[C@@H]1C(=O)N2C(C(=O)[O-])=C(C[n+]3ccccc3)CS[C@H]12)c1csc(N)n1)C(=O)O` [CEFTAZIDIME], the MIC is 4 µg/mL (≈ 7.32 µM) in the test on Capnocytophaga sputigena [1]; 0.5 µg/mL (≈ 0.915 µM) with Escherichia coli [2]; below 0.06 µg/mL with Capnocytophaga sputigena [3]; below 0.06 µg/mL against Capnocytophaga sputigena [4]; below 0.06 µg/mL against Escherichia coli [5].

Turning to `CO/N=C(\C(=O)N[C@@H]1C(=O)N2C(C(=O)[O-])=C(C[N+]3(C)CCCC3)CS[C@H]12)c1csc(N)n1` [CEFEPIME], the MIC was 0.125 µg/mL (≈ 0.26 µM) in the test with Capnocytophaga sputigena [1], 4 µg/mL (≈ 8.32 µM) in the test on Escherichia coli [2], below 0.06 µg/mL in the test on Capnocytophaga sputigena [3] and below 0.06 µg/mL in the test with Capnocytophaga sputigena [4].

Consider `CC(=O)OCC1=C(C(=O)O)N2C(=O)[C@@H](NC(=O)Cc3cccs3)[C@H]2SC1` [CEPHALOTHIN], for which the MIC was 64 µg/mL (≈ 161 µM) against Capnocytophaga sputigena [1]; above 512 µg/mL against Escherichia coli [2]; 0.125 µg/mL (≈ 0.315 µM) against Capnocytophaga sputigena [3]; 0.25 µg/mL (≈ 0.631 µM) against Capnocytophaga sputigena [4]; 4 µg/mL (≈ 10.1 µM) against Escherichia coli [5].

Regarding `CO/N=C(\C(=O)N[C@@H]1C(=O)N2C(C(=O)O)=C(COC(N)=O)CS[C@H]12)c1ccco1` [CEFUROXIME], the MIC was 64 µg/mL (≈ 151 µM) against Capnocytophaga sputigena [1]; 256 µg/mL (≈ 603 µM) in the test on Escherichia coli [2]; 0.5 µg/mL (≈ 1.18 µM) with Capnocytophaga sputigena [3]; 0.5 µg/mL (≈ 1.18 µM) with Capnocytophaga sputigena [4]; 0.5 µg/mL (≈ 1.18 µM) in the test on Escherichia coli [5].

As a reminder, the MIC is the least concentration at which growth counts as inhibited. A high value points to a need for much substance.
